Data: PubChem BioAssay AID330 (DTP/NCI, 2004)
Where “and” joins values, the source holds several entries; their conditions need not be identical. Equal values may be shown once. Toxic doses and inconclusive results are not listed. How the source made its calls: active means survival T/C of 150% or more; inactive means T/C below 125% in these data.

Tested on: P388 leukemia ip, CD2F1 mice, survival T/C
Assay: NCI In Vivo Anticancer Drug Screen. Data for tumor model P388 Leukemia (intraperitoneal) in CD2F1 (CDF1) mice
Conditions: endpoint: median survival time, higher = longer survival
In short: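 Mice carrying the transplanted tumor received test compound or vehicle. Survival was recorded in each group, and the value is the treated-group measurement divided by that of the vehicle-treated control group.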

[1] = dose: 50.0 mg/kg/injection, schedule: Q01DX005 (ip), vehicle: Klucel (hydroxypropylcellulose) (HPC)
[2] = dose: 100.0 mg/kg/injection, schedule: Q01DX005 (ip), vehicle: Klucel (hydroxypropylcellulose) (HPC)
[3] = dose: 200.0 mg/kg/injection, schedule: Q01DX005 (ip), vehicle: Klucel (hydroxypropylcellulose) (HPC)
[4] = dose: 50.0 mg/kg/injection, schedule: Q01DX009 (ip), vehicle: saline
[5] = dose: 100.0 mg/kg/injection, schedule: Q01DX009 (ip), vehicle: saline with Tween-80
[6] = dose: 200.0 mg/kg/injection, schedule: Q01DX009 (ip), vehicle: saline with Tween-80
[7] = dose: 60.0 mg/kg/injection, schedule: Q01DX005 (ip), vehicle: saline with Tween-80
[8] = dose: 120.0 mg/kg/injection, schedule: Q01DX005 (ip), vehicle: saline with Tween-80
[9] = dose: 240.0 mg/kg/injection, schedule: Q01DX005 (ip), vehicle: saline with Tween-80

Measured: T/C

Clc1cc2c(cc1CO/N=C\c1ccc3c(c1)OCO3)OCO2
inactive: dose: 50.0 mg/kg/injection, schedule: Q04DX003 (ip), vehicle: saline sonified 90 % of control | dose: 100.0 mg/kg/injection, schedule: Q04DX003 (ip), vehicle: saline sonified 95 % of control | dose: 200.0 mg/kg/injection, schedule: Q04DX003 (ip), vehicle: saline sonified 90 % of control

CC1=CC(O)(c2nc3ccccc3s2)CC(C)(C)C1 (stereo not given)
inactive: dose: 60.0 mg/kg/injection, schedule: Q01DX005 (ip), vehicle: Klucel (hydroxypropylcellulose) (HPC) 93 % of control | dose: 120.0 mg/kg/injection, schedule: Q01DX005 (ip), vehicle: Klucel (hydroxypropylcellulose) (HPC) 94 % of control | dose: 240.0 mg/kg/injection, schedule: Q01DX005 (ip), vehicle: Klucel (hydroxypropylcellulose) (HPC) 92 % of control

CCOC(=O)c1n[nH]c(=S)[nH]c1=O
inactive: [1] 104 % of control | [2] 108 % of control | [3] 101 % of control

CC(=O)NNC(=O)C(Cl)Cl
inactive: dose: 12.5 mg/kg/injection, schedule: Q01DX009 (ip), vehicle: saline 92 % of control | dose: 25.0 mg/kg/injection, schedule: Q01DX009 (ip), vehicle: saline 89 % of control | [4] 101 % of control and 90 % of control

Cc1[nH]c(=O)n(C(C)C)c(=O)c1Br
inactive: dose: 100.0 mg/kg/injection, schedule: Q01DX001 (ip), vehicle: saline sonified 100 % of control | dose: 200.0 mg/kg/injection, schedule: Q01DX001 (ip), vehicle: saline sonified 100 % of control | dose: 400.0 mg/kg/injection, schedule: Q01DX001 (ip), vehicle: saline sonified 100 % of control

CN(C)c1ccc(-c2nc(=O)[nH]c(=O)s2)cc1
inactive: dose: 50.0 mg/kg/injection, schedule: Q01DX009 (ip), vehicle: saline with Tween-80 102 % of control | [5] 100 % of control | [6] 98 % of control

COC(=O)CC1CSCC1=O (stereo not given)
inactive: [7] 105 % of control | [8] 100 % of control | [9] 105 % of control

Oc1c(Cl)cc(Cl)cc1/C=N/c1nc(-c2ccc(Cl)cc2)cs1
inactive: [5] 88 % of control | [6] 104 % of control

CCCCC(CC)C(=O)OC(C)CN(CC(C)OC(=O)C(CC)CCCC)C(=O)C(C)OC(=O)C(CC)CCCC (stereo not given)
inactive: dose: 50.0 mg/kg/injection, schedule: Q01DX005 (ip), vehicle: saline with Tween-80 103 % of control | dose: 100.0 mg/kg/injection, schedule: Q01DX005 (ip), vehicle: saline with Tween-80 96 % of control | dose: 200.0 mg/kg/injection, schedule: Q01DX005 (ip), vehicle: saline with Tween-80 103 % of control

CC1C(c2ccc3c(c2)OCO3)CC(Cl)CC12C=C1OCOC1=CC2=O (stereo not given)
inactive: dose: 8.75 mg/kg/injection, schedule: Q01DX005 (ip), vehicle: Klucel (hydroxypropylcellulose) (HPC) 101 % of control | dose: 17.5 mg/kg/injection, schedule: Q01DX005 (ip), vehicle: Klucel (hydroxypropylcellulose) (HPC) 101 % of control | dose: 35.0 mg/kg/injection, schedule: Q01DX005 (ip), vehicle: Klucel (hydroxypropylcellulose) (HPC) 105 % of control

COc1cc(C2c3cc(OC(C)=O)c(OC)cc3CC3C(=O)OCC32)ccc1OC(C)=O (stereo not given)
inactive: [1] 95 % of control | [2] 93 % of control | [3] 90 % of control

COc1ccc(/C=C\C(=O)c2ccc(C(=O)/C=C/c3ccc(OC)cc3OC)cc2)c(OC)c1
inactive: dose: 12.5 mg/kg/injection, schedule: Q04DX003 (ip), vehicle: saline with Tween-80 100 % of control | dose: 25.0 mg/kg/injection, schedule: Q04DX003 (ip), vehicle: saline with Tween-80 102 % of control | dose: 50.0 mg/kg/injection, schedule: Q04DX003 (ip), vehicle: saline with Tween-80 92 % of control

C=CCN=C(N)S[As]1c2ccccc2Oc2ccccc21
inactive: [4] 100 % of control | dose: 100.0 mg/kg/injection, schedule: Q01DX009 (ip), vehicle: saline 98 % of control | dose: 200.0 mg/kg/injection, schedule: Q01DX009 (ip), vehicle: saline 102 % of control

COC(=O)C1=C(C(=O)OC)NC2=C(C=N1)CCC2
inactive: [7] 102 % of control | [8] 94 % of control | [9] 91 % of control

Nc1ccc(-c2nc(N)c3[nH]cnc3n2)cc1
inactive: dose: 12.5 mg/kg/injection, schedule: Q01DX005 (ip), vehicle: suspension in saline 97 % of control | dose: 25.0 mg/kg/injection, schedule: Q01DX005 (ip), vehicle: suspension in saline 102 % of control | dose: 50.0 mg/kg/injection, schedule: Q01DX005 (ip), vehicle: suspension in saline 100 % of control | dose: 100.0 mg/kg/injection, schedule: Q01DX005 (ip), vehicle: suspension in saline 99 % of control
